Laboratory results reported in patent US20160193206A1, “BET-PROTEIN-INHIBITING DIHYDROPYRIDOPYRAZINONES” (BAYER PHARMA AKTIENGESELLSCHAFT, priority 2012, published 2016).

Legend:
[1] = molecular target: T1, BRD4 bromo domain 1 [BRD4(1)] (Homo sapiens, UniProt O60885); assay: BRD4(1)/acetylated peptide H4 binding assay (TR-FRET); details: inhibition of interaction between His6-tagged BRD4(1) (amino acids 67-152) and acetylated histone H4 peptide
T1 construct: N-terminally His6-tagged BRD4(1) (amino acids 67-152); made in house; host or cells: E. coli
Procedure, shortened: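 TR-FRET measured displacement of a biotinylated tetra-acetylated H4 peptide from His6-BRD4(1) (aa 67-152, E. coli-expressed, typically 10 nM) in HEPES pH 7.5 buffer. Compounds were tested at 11 concentrations (0.1 nM–20 μM), with 10 min preincubation, then 1 h at 22 °C and ≥3 h at 4 °C. The 665/620 nm ratio gave IC50 by 4-parameter fit.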

[2] = molecular target: T2, BRD4 bromo domain 2 [BRD4(2)] (Homo sapiens, UniProt O60885); assay: BRD4(2)/acetylated peptide H4 binding assay (TR-FRET); details: inhibition of interaction between His6-tagged BRD4(2) (amino acids 357-445) and acetylated histone H4 peptide
T2 construct: N-terminally His6-tagged BRD4(2) (amino acids 357-445); made in house; host or cells: E. coli
Procedure, shortened: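 TR-FRET displacement of biotinylated tetra-acetylated H4 peptide from His6-BRD4(2) (aa 357-445, E. coli-expressed), 100 nM final, in HEPES pH 7.5 buffer; 11 compound concentrations 0.1 nM-20 μM, 10 min preincubation, then 1 h 22 °C plus ≥3 h 4 °C. 665/620 ratio read; IC50 by 4-parameter fit.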

MOLM-13 cell line = assay: MOLM-13 cell proliferation assay (alamarBlue); type: cell-based; details: Homo sapiens, inhibition of proliferation of MOLM-13 cells (acute myeloid leukaemia), 96 hours incubation
Procedure: In accordance with the invention, the substances were tested for their ability to inhibit the proliferation of the MOLM-13 cell linie (Deutsche Sammlung für Mikroorganismen und Zellkulturen [German Collection of Microorganisms and Cell Cultures], ACC 554; acute myeloid leukaemia). Cell viability was determined by means of the alamarBlue® reagent (Invitrogen) in a Victor X3 Multilabel Reader (Perkin Elmer). The excitation wavelength was 530 nm and the emission wavelength […].
The MOLM-13 cells were sown at a density of 4000 cells/well in 100 μl of growth medium on 96-well microtitre plates. After overnight incubation at 37° C., the fluorescence values were determined (CI values). The plates were then treated with various substance dilutions and incubated at 37° C. for 96 hours. Subsequently, the fluorescence values were determined (CO values). For the data analysis, the CI values were subtracted from the CO values and the results were compared between cells which had been treated with various dilutions of the substance or only with buffer solution. The IC50 values (substance concentration needed for 50% inhibition of cell proliferation) were calculated therefrom.

Row | IC50 [1] [µM] | IC50 [2] [µM] | IC50 (MOLM-13 cell line) [µM] | SMILES
1 | 0.179 | 0.081 | 0.31 | COc1cc(C(=O)NCCN2CCN(C)CC2)ccc1Nc1ccc2c(n1)N(C1CCOCC1)[C@H](C)C(=O)N2C [Example 64, 4-{[(3R)-1,3-Dimethyl-2-oxo-4-(tetrahydro-2H-pyran-4-yl)-1,2,3,4-tetrahydropyrido[2,3-b]pyrazin-6-yl]amino}-3-methoxy-N-[2-(4-methylpiperazin-1-yl)ethyl]benzamide]
2 | 0.04 | 0.048 | 0.131 | COc1cc(C(=O)NCCN2CCN(C)CC2)ccc1Nc1ccc2c(n1)N(Cc1ccccc1)[C@H](C)C(=O)N2C [Example 82, 4-{[(3R)-4-Benzyl-1,3-dimethyl-2-oxo-1,2,3,4-tetrahydropyrido[2,3-b]pyrazin-6-yl]amino}-3-methoxy-N-[2-(4-methylpiperazin-1-yl)ethyl]benzamide]
3 | 0.172 | 0.11 | 0.407 | COc1cc(C(=O)NCCc2cccnc2)ccc1Nc1ccc2c(n1)N(C1CCOCC1)[C@H](C)C(=O)N2C [Example 61, 4-{[(3R)-1,3-Dimethyl-2-oxo-4-(tetrahydro-2H-pyran-4-yl)-1,2,3,4-tetrahydropyrido[2,3-b]pyrazin-6-yl]amino}-3-methoxy-N-[2-(pyridin-3-yl)ethyl]benzamide]
4 | 0.187 | 0.146 | 0.444 | COc1cc(C(=O)NC2CCC(N3CCC(F)(F)CC3)CC2)ccc1Nc1ccc2c(n1)N(C1CCOCC1)[C@H](C)C(=O)N2C (stereo partly drawn) [Example 62, N-[4-(4,4-Difluoropiperidin-1-yl)cyclohexyl]-4-{[(3R)-1,3-dimethyl-2-oxo-4-(tetrahydro-2H-pyran-4-yl)-1,2,3,4-tetrahydropyrido[2,3-b]pyrazin-6-yl]amino}-3-methoxybenzamide]
5 | 0.154 | 0.096 | 0.445 | C[C@@H]1C(=O)N(C)c2ccc(Nc3ccc(S(=O)(=O)N4CCN(C)CC4)cc3)nc2N1C1CCOCC1 [Example 20, (3R)-1,3-dimethyl-6-({4-[(4-methylpiperazin-1-yl)sulphonyl]phenyl}amino)-4-(tetrahydro-2H-pyran-4-yl)-3,4-dihydropyrido[2,3-b]pyrazin-2(1H)-one]
6 | 0.263 | 0.31 | 0.548 | C[C@@H]1C(=O)N(C)c2ccc(Nc3ccc(C(=O)N[C@H]4CC[C@H](N5CCN(CC6CC6)CC5)CC4)cc3)nc2N1C1CCCCC1 [Example 68, 4-{[(3R)-4-Cyclohexyl-1,3-dimethyl-2-oxo-1,2,3,4-tetrahydropyrido[2,3-b]pyrazin-6-yl]amino}-N-{trans-4-[4-(cyclopropylmethyl)piperazin-1-yl]cyclohexyl}benzamide]
7 | 0.201 | 0.241 | 0.255 | CC1C(=O)N(C)c2ccc(Nc3ccc(S(=O)(=O)NC4CCN(C)CC4)cc3)nc2N1c1ccccc1 (stereo not drawn) [Example 107, 4-[(1,3-Dimethyl-2-oxo-4-phenyl-1,2,3,4-tetrahydropyrido[2,3-b]pyrazin-6-yl)amino]-N-(1-methylpiperidin-4-yl)benzenesulphonamide]
8 | 0.05 | 0.094 | 0.388 | C[C@@H]1C(=O)N(C)c2ccc(Nc3ccc(S(=O)(=O)NCc4ccccn4)cc3)nc2N1C1CCOCC1 [Example 25, 4-{[(3R)-1,3-dimethyl-2-oxo-4-(tetrahydro-2H-pyran-4-yl)-1,2,3,4-tetrahydropyrido[2,3-b]pyrazin-6-yl]amino}-N-(pyridin-2-ylmethyl)benzene-sulphonamide]
9 | 0.149 | 0.082 | 0.35 | C[C@@H]1C(=O)N(C)c2ccc(Nc3ccc(C(=O)N4CC5(CCS5(=O)=O)C4)cc3)nc2N1Cc1ccccc1 [Example 75, (3R)-4-Benzyl-6-({4-[(1,1-dioxido-1-thia-6-azaspiro[3.3]hept-6-yl)carbonyl]phenyl}amino)-1,3-dimethyl-3,4-dihydropyrido[2,3-b]pyrazin-2(1H)-one]
10 | 0.078 | 0.051 | 0.177 | C[C@@H]1C(=O)N(C)c2ccc(Nc3ccc(S(=O)(=O)N(C)C)cc3)nc2N1C1CCCC1 [Example 103, 4-{[(3R)-4-Cyclopentyl-1,3-dimethyl-2-oxo-1,2,3,4-tetrahydropyrido[2,3-b]pyrazin-6-yl]amino}-N,N-dimethylbenzenesulphonamide]
11 | 0.122 | 0.109 | 0.191 | C[C@@H]1C(=O)N(C)c2ccc(Nc3ccc(C(=O)N4CC5(COC5)C4)cc3)nc2N1Cc1ccccc1 [Example 41, (3R)-4-Benzyl-1,3-dimethyl-6-{[4-(2-oxa-6-azaspiro[3.3]hept-6-ylcarbonyl)phenyl]amino}-3,4-dihydropyrido[2,3-b]pyrazin-2(1H)-one]
12 | 0.131 | 0.472 | 0.63 | COc1cc(C(=O)NCCN2CCOCC2)ccc1Nc1ccc2c(n1)N(C(C)C)[C@H](C)C(=O)N2C [Example 3, 4-{[(3R)-1,3-Dimethyl-2-oxo-4-(propan-2-yl)-1,2,3,4-tetrahydropyrido[2,3-b]pyrazin-6-yl]amino}-3-methoxy-N-[2-(morpholin-4-yl)ethyl]benzamide]
13 | 0.215 | 0.128 | 0.668 | COc1cc(C(=O)NC2CN(C)C2)ccc1Nc1ccc2c(n1)N(C1CCOCC1)[C@H](C)C(=O)N2C [Example 55, 4-{[(3R)-1,3-Dimethyl-2-oxo-4-(tetrahydro-2H-pyran-4-yl)-1,2,3,4-tetrahydropyrido[2,3-b]pyrazin-6-yl]amino}-3-methoxy-N-(1-methylazetidin-3-yl)benzamide]
14 | 0.149 | 0.108 | 0.233 | COc1cc(C(=O)N[C@H]2CC[C@H](N3CCN(CC4CC4)CC3)CC2)ccc1Nc1ccc2c(n1)N(C1CCOCC1)[C@H](C)C(=O)N2C [Example 14, N-{trans-4-[4-(Cyclopropylmethyl)piperazin-1-yl]cyclohexyl}-4-{[(3R)-1,3-dimethyl-2-oxo-4-(tetrahydro-2H-pyran-4-yl)-1,2,3,4-tetrahydropyrido[2,3-b]pyrazin-6-yl]amino}-3-methoxybenzamide]
15 | 0.133 | 0.061 | 0.122 | COc1cc(C(=O)N2CC3(COC3)C2)ccc1Nc1ccc2c(n1)N(Cc1ccccc1)[C@H](C)C(=O)N2C [Example 83, (3R)-4-Benzyl-6-{[2-methoxy-4-(2-oxa-6-azaspiro[3.3]hept-6-ylcarbonyl)phenyl]amino}-1,3-dimethyl-3,4-dihydropyrido[2,3-b]pyrazin-2(1H)-one]
16 | 0.145 | 0.111 | 0.576 | C[C@@H]1C(=O)N(C)c2ccc(Nc3ccc(C(=O)NC4CN(C)C4)cc3)nc2N1C1CCOCC1 [Example 50, 4-{[(3R)-1,3-Dimethyl-2-oxo-4-(tetrahydro-2H-pyran-4-yl)-1,2,3,4-tetrahydropyrido[2,3-b]pyrazin-6-yl]amino}-N-(1-methylazetidin-3-yl)benzamide]
17 | 0.1 | 0.09 | 0.214 | CC(C)N1CCN(S(=O)(=O)c2ccc(Nc3ccc4c(n3)N(C3CCCC3)[C@H](C)C(=O)N4C)cc2)CC1 [Example 102, (3R)-4-Cyclopentyl-1,3-dimethyl-6-[(4-{[4-(propan-2-yl)piperazin-1-yl]sulphonyl}phenyl)amino]-3,4-dihydropyrido[2,3-b]pyrazin-2(1H)-one]
18 | 0.089 | 0.023 | 0.096 | C[C@@H]1C(=O)N(C)c2ccc(Nc3ccc(C(=O)NCCN4CCN(C)CC4)cc3)nc2N1Cc1ccccc1 [Example 81, 4-{[(3R)-4-Benzyl-1,3-dimethyl-2-oxo-1,2,3,4-tetrahydropyrido[2,3-b]pyrazin-6-yl]amino}-N-[2-(4-methylpiperazin-1-yl)ethyl]benzamide]
19 | 0.056 | 0.04 | 0.305 | C[C@@H]1C(=O)N(C)c2ccc(Nc3ccc(S(=O)(=O)N4CCOCC4)cc3)nc2N1C1CCOCC1 [Example 18, (3R)-1,3-dimethyl-6-{[4-(morpholin-4-ylsulphonyl)phenyl]amino}-4-(tetrahydro-2H-pyran-4-yl)-3,4-dihydropyrido[2,3-b]pyrazin-2(1H)-one]
20 | 0.256 | 0.104 | 0.338 | COc1cc(C(=O)N[C@H]2CC[C@H](N3CCN(CC4CC4)CC3)CC2)ccc1Nc1ccc2c(n1)N(Cc1ccccc1)[C@H](C)C(=O)N2C [Example 34, 4-{[(3R)-4-Benzyl-1,3-dimethyl-2-oxo-1,2,3,4-tetrahydropyrido[2,3-b]pyrazin-6-yl]amino}-N-{trans-4-[4-(cyclopropylmethyl)piperazin-1-yl]cyclohexyl}-3-methoxybenzamide]
